{"source": "patent US8669282B2", "about": "“Companion animal compositions including lipoic acid and methods of use thereof” (Hill's Pet Nutrition, Inc., priority 2000, dated 2014)", "key": {"[1]": {"test_system": "GSH:GSSG", "experiment": "GSH:GSSG ratio in blood lymphocytes of dogs fed dl-alpha-lipoic acid in extruded food", "type": "in vivo", "conditions": "chronic feeding in diet", "text": "Thirty (30) adult, random source, dogs were utilized for this study. Dogs were at least 10 months of age, not pregnant, not lactating and of reasonable body weight prior to start of test. Animals were randomized into 5 groups for dietary treatment with 3 males and 3 females per each group.\nAll dogs were fed a control food (0 ppm dl-alpha-lipoic acid added) that met or exceeded all recommendations for nutrients as proposed by the American Association of Feed Control Officials (AAFCO 2000) during a 2 week prefeeding period (Table 2). Following the prefeeding period dogs were randomized into 5 treatment groups with one of the following dl-alpha lipoic acid target-inclusions (dry matter basis): 0 ppm, 150 ppm, 1500 ppm, 3000 ppm, 4500 ppm. […]\nSolvents and separation conditions were as described (Fariss, Jones). Levels of GSH and GSSG were quantified relative to authentic standards. […]\nComparison of values for clinical chemistry, hematology and body weights vs baseline were analyzed by way of paired t-test on SAS for windows with significance set at P<0.05. Means of values at each measured time point were separated by a one-way ANOVA with significance set at P<0.05. The difference in GSH:GSSG between day 84 and baseline were analyzed between groups by way of SAS for windows in a one-way ANOVA with significance set at P<0.05."}, "[2]": {"test_system": "genes related to cartilage and energy metabolism", "experiment": "Differential gene expression profile, whole blood RNA, canine 2 Affymetrix genechips", "type": "in vivo, dogs", "text": "Thirty (30) dogs were used to determine the effect of lipoic acid when compared to an AAFCO control food or a test food containing fish oil.\nA differential gene expression profile was studied between an AAFCO control food, a food containing fish oil, and a food containing lipoic acid. At a minimum of 1.3 fold change, a list of 1212 genes was generated compared to the AAFCO control and 1896 genes compared to the food containing fish oil at d 30.\nTotal RNAs were isolated from whole blood samples using the PAXgene RNA isolation kit. All measurements were done with the canine 2 Affymetrix genechips. For statistical analysis, all measurements were normalized with RMA. All analysis was preformed using Partek. An ANOVA t-test was performed for genes that are differentially expressed between the control and test foods were selected based on p-value cutoff 0.1, fold change>+/−1.3.\nTable 9 illustrates the change in genes related to cartilage metabolism and energy metabolism in dogs after being fed a control diet compared with dogs fed a control plus fish oil and a control plus lipoic acid for 90 days."}, "[3]": {"test_system": "canine bone cells", "experiment": "Genes related to cartilage metabolism altered in canine bone cells", "type": "in vivo, dogs", "conditions": "90 days", "text": "Table 8 illustrates the directional change (up regulation or down regulation) in genes related to cartilage metabolism in dogs after being fed a control diet compared with dogs fed a control plus fish oil and a control plus lipoic acid for 90 days in canine bone cells."}, "[4]": {"test_system": "plasma metabolites", "experiment": "Plasma metabolomics, fold change at day 30", "type": "in vivo, dogs", "procedure": "Plasma metabolites were analyzed and were compared as fold change relative to the control fed dogs.\nTable 5 illustrates the change in pyruvate blood levels in of dogs fed a control diet compared with dogs fed a control plus fish oil and a control plus lipoic acid.\nTable 22 illustrates change in metabolite measured in blood samples for dogs after being fed a control diet compared with dogs fed a pet food including lipoic acid for 30 days."}, "[5]": {"test_system": "cartilage markers (CPII, CTXII, COMP)", "experiment": "Serum cartilage (arthritic) markers by ELISA", "type": "in vivo, dogs", "conditions": "for Change CPII / Change CTXII / CPII: blood", "procedure": "Serum cartilage markers were measured using ELISA based kits to determine concentrations of cartilage markers. Day 0 was used as a covariate in the analysis to adjust for baseline values.\nTable 7 illustrates the change in blood level of arthritic markers in dogs after being fed a control diet compared with dogs fed a control plus fish oil and a control plus lipoic acid for 30 days and measured again at day 90.\nTable 12 illustrates arthritic makers measured in blood samples for dogs after being fed a control diet compared with dogs fed a pet food including lipoic acid for 90 days."}, "[6]": {"conditions": "test food containing 150 ppm lipoic acid, fold change >+/-1.3, p cutoff 0.1"}, "[7]": {"conditions": "blood, day 30, day 0 as covariate"}}}
{"smiles": "O=C(O)CCCCC1CCSS1", "note": "(racemic) [Lipoic acid, dl-alpha-lipoic acid]", "values": [{"measurement": "reduced glutathione (GSH) to oxidized glutathione (GSSG) ratio, in words", "setting": "[1]", "result": "improves"}, {"measurement": "Fold change Facilitated glucose transporter 6", "setting": "[2]; lipoic acid vs. control", "result": 1.3}, {"measurement": "Fold change chondroitan sulfate protcoglycan 2 (veriscan)", "setting": "[2]; lipoic acid vs. control", "result": 1.5}, {"measurement": "Fold change N-acetylgalactosaminyl-transferase 1", "setting": "[2]; lipoic acid vs. fish oil", "result": 1.3}, {"measurement": "number of genes with altered expression vs AAFCO control food", "setting": "[2]; [6]", "result": 1212, "unit": "genes"}, {"measurement": "number of genes with altered expression vs test food containing fish oil", "setting": "[2]; [6]", "result": 1896, "unit": "genes"}, {"measurement": "MMP3 gene, directional change", "setting": "[3]; probe 1582602_at", "result": "Down"}, {"measurement": "TIMP2 gene, directional change", "setting": "[3]; probe 1582708_at", "result": "up"}, {"measurement": "Prolyl 4-hydroxylase gene, directional change", "setting": "[3]; probe 1600479_at", "result": "up"}, {"measurement": "Fold change in pyruvate, Lipoic acid vs Control", "setting": "[4]; [7]", "result": 0.5379}, {"measurement": "Fold change in pyruvate, Lipoic acid vs Fish oil", "setting": "[4]; [7]", "result": 0.6274}, {"measurement": "metabolite hydroxyproline in plasma, in words", "setting": "[4]; dogs fed a food containing lipoic acid", "result": "reduced"}, {"measurement": "Change CPII", "setting": "[5]; Day 30", "result": "−95.10"}, {"measurement": "Change CTXII", "setting": "[5]; Day 30", "result": "−5.60"}, {"measurement": "CPII", "setting": "[5]; Day 30, d 0 as covariate", "result": 986.28, "unit": "ng/mL"}, {"measurement": "Change CPII", "setting": "[5]; Day 90", "result": "−232.70"}, {"measurement": "Change CTXII", "setting": "[5]; Day 90", "result": "−0.59"}, {"measurement": "CPII", "setting": "[5]; Day 90, d 0 as covariate", "result": 848.0, "unit": "ng/mL"}, {"measurement": "type II collagen C-propeptide and carboxy-terminal crosslinked telopeptide fragment of type II collagen, in words", "setting": "[5]; compared with a similar food without lipoic acid", "result": "greater decrease"}]}
